Test [1] deals with T1, rat OX1 receptors (Rattus norvegicus, UniProt P56718).
T1 sequence (P56718 1-416): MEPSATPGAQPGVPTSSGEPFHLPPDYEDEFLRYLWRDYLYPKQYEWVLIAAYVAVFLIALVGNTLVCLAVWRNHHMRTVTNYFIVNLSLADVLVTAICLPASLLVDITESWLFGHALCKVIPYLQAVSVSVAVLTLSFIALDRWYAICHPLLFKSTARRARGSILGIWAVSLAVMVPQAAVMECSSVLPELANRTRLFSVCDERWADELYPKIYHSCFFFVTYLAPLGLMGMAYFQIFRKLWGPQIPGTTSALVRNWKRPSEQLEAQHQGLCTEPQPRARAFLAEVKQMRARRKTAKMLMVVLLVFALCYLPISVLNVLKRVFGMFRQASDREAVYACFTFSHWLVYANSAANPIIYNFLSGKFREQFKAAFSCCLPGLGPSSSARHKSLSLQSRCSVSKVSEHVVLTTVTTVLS
Put plainly: cell-based.
Procedure: (§1) Recombinant human OX1 and OX2 receptors were stably expressed in HEK293 cells, or rat recombinant OX1 and OX2 receptors stably expressed in AV12 cells, and assessed for intracellular calcium mobilization using Fluo-3 dye (Molecular Probes, Eugene, OR). […] It was further diluted to 8 mM in 2.5 mM probenecid loading buffer which was made as described below. The human cell line was grown in DMEM/F-12 (3:1) supplemented with 10% FBS (heat-inactivated), 20 mM HEPES, 1% Penn/Strep, and 4 μg/ml Blasticidin (35,000 cells/well). The rat cell line was grown in DMEM supplemented with 10% FBS (heat-inactivated), 20 mM HEPES, 1% Penn/Strep, 4 μg/ml Blasticidin, and 1 mM sodium pyruvate (60,000 cells/well). […] Finally, plates were read on a fluorescence imaging plate reader (FLIPR; Molecular Devices, LLC, Sunnyvale, CA) instrument with a 50 μl addition of antagonist; cells were placed in the dark at room temperature for an additional 15 min; then read on FLIPR instrument with a 100 μl addition of an EC70 concentration of orexin A (for a total volume of 200 μl). […] Kb-values were calculated based on 10-point dilution curves using ActivityBase templates (ID Business Solutions, Ltd., Guildford, Surrey, UK). […]

Test [2] has as its target T2, human OX2 receptors (Homo sapiens, UniProt O43614).
T2 sequence (O43614 1-444): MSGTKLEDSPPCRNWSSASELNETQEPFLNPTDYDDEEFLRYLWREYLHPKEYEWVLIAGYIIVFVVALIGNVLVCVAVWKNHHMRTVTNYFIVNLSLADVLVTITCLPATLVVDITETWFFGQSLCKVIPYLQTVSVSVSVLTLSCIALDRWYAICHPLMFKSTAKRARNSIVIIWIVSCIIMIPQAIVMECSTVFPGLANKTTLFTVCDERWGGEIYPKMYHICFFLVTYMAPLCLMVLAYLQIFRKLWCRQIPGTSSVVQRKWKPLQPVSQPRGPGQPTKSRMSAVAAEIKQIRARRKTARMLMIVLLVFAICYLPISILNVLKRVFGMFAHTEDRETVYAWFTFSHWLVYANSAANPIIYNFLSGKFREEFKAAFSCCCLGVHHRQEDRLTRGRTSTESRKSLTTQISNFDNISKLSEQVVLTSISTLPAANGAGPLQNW
Briefly: Intracellular calcium mobilization (FLIPR), antagonist mode vs EC70 orexin-A. The format is cell-based. Further details: expressed in transfected cells. The following applies: HEK293 cells, mean ± s.e.m. (n); for Kb: read-out: Functional antagonist activity, Kb hOX2. In general terms: Calcium assays in cells follow changes in intracellular calcium, usually with a dye or a luminescent sensor.

Test [3] concerns the target T3, rat OX2 receptors (Rattus norvegicus, UniProt P56719).
T3 sequence (P56719 1-460): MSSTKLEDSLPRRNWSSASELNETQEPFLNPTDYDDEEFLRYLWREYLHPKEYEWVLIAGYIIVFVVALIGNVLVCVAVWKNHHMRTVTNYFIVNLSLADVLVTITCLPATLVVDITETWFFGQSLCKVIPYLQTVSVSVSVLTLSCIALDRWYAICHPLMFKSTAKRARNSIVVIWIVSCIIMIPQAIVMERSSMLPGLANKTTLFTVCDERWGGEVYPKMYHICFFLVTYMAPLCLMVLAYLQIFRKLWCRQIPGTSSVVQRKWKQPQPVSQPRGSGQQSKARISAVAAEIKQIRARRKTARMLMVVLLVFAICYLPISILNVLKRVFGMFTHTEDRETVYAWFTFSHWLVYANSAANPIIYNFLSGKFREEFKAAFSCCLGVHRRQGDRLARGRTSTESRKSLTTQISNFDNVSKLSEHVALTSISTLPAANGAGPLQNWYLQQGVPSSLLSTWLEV
Put plainly: cell-based.

For test [4], the target named is T4, human OX1 receptors (Homo sapiens, UniProt O43613).
T4 sequence (O43613 1-425): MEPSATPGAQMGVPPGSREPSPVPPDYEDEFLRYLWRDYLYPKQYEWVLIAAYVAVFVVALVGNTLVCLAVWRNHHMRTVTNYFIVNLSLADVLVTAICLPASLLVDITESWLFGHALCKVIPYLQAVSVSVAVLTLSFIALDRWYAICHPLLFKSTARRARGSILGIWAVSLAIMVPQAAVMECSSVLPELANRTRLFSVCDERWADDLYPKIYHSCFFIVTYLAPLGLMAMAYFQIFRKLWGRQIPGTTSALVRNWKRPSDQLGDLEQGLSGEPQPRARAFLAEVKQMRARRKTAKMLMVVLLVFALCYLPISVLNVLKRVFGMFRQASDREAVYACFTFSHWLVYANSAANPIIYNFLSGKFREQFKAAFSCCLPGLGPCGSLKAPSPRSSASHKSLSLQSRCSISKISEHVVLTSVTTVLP
Put plainly: Radioligand binding, [125I]-Orexin A displacement, HEK293 membranes. Further details: expressed in transfected cells; membranes. As to conditions: 90 min, mean ± s.e.m. (n). The method, then:
Briefly, the membranes were isolated by homogenizing cell pellet in 30 ml (w/v) 50 mM Tris buffer (pH 7.4) containing Roche Complete EDTA free protease tablets. […] All binding studies were conducted at a final volume of 200 μl. […] Then 300 μl of this solution was placed in column B on a Nunc polypropylene 96-well plate (Thermo Fisher Scientific, Inc., Rochester, NY). Serial dilutions were then made using a Biomek 2000 (Beckman Coulter, Inc., Fullerton, CA) from a starting concentration of 40 μM. […] All binding was terminated by rapid filtration using a TOMTEC 96-well cell harvester (Hamden, CT) through GF/A filters that had been presoaked with 0.3% polyethyleneimine. The filters were washed with 5.0 ml ice-cold 50 mM Tris buffer (pH 7.4) and air-dried overnight. […] Protein concentrations were measured using Coomassie Protein Plus Assay Reagent (Pierce, Rockford, IL) and serum albumin standards.

For test [5], the target named is T4, human OX1 receptors. Put plainly: Intracellular calcium mobilization (FLIPR), antagonist mode vs EC70 orexin-A. The following applies: HEK293 cells, mean ± s.e.m. (n).
Procedure: as §1

The source of these data is publication PMC3904085 (Frontiers in Neuroscience, 2014).

`CNC(=O)[C@@H](c1ccccc1)N1CCc2cc(OC)c(OC)cc2[C@@H]1CCc1ccc(C(F)(F)F)cc1` [Almorexant (S)]: the Kb in test [1] came to 3.2 ± 0.7 nM; in test [2], 1.73 ± 0.35 nM; in test [3] it was 4.4 ± 1.6 nM.

`CNC(=O)[C@@H](c1ccccc1)N1CCc2cc(OC)c(OC)cc2[C@@H]1CCc1ccc(C(F)(F)F)cc1` [Almorexant (R)]: the “Receptor binding affinity, Ki OX1” value in test [4] is “inactive”. For the same compound, the “Functional antagonist activity, Kb hOX1” value in test [5] is “inactive”. Moreover, in test [2], the “Functional antagonist activity, Kb hOX2” value was “inactive” and the Kb is over 10000 nM.
